How the values were obtained:
[1] = tested on: Ostrinia nubilalis (European corn borer); test: Efficacy of chlorpyrifos-ethyl with boronic acids on European corn borer on corn leaves; assay type: in vivo
Experimental: Treatments were performed by spraying a volume of mixture corresponding to 200 l/ha. 4 boxes/condition.
Drying 1 h at 20° C.; Deposit of three leaf fragments per box on water agar (4 box/condition); Infection of each leaf fragment with 4 Ostrinia nubilalis (12 larvae/box); Incubation 18° C./28° C. […] The percentage of mortality was calculated for each assessment times. Statistical analysis of the data was performed with XLSTAT® software (ANOVAs followed by Newman-Keuls tests with a threshold of 5%, see Table below).

Trypsin = target: T1, Trypsin (Bos taurus, UniProt P00760); test: Trypsin selectivity; assay type: biochemical
T1 construct: gene PRSS1
T1 sequence (P00760 24-246): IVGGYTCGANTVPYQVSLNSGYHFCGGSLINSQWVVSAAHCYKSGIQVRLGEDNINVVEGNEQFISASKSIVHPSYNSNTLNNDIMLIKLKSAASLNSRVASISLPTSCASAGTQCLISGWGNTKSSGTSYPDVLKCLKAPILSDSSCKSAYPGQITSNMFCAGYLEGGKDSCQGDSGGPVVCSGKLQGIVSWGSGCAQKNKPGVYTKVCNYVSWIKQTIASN
Experimental: (§1) To characterize the selectivity of boronic acids 1 to 5, they were assayed against AChE, the target of OP and carbamate insecticides (Table 1) as well as trypsin and bacterial AmpC β-lactamase. […] The toxicity of the hits against two human cell lines was further assessed.
(§2) To characterize the selectivity of boronic acids 1 to 5, they were assayed against the target of OP insecticides, AChE, as well as trypsin and bacterial AmpC β-lactamase (Table 1). AChE and αE7 are homologous, sharing the α/β-hydrolase fold and the same catalytic machinery, however the topology of their binding pockets is dissimilar (Jackson, C. J. et al. Structure and function of an insect α-carboxylesterase (αEsterase7) associated with insecticide resistance. Proc. Natl. Acad. Sci. U.S.A. 110, 10177-82 (2013) and Correy, G. J. et al. Mapping the Accessible Conformational Landscape of an Insect Carboxylesterase Using Conformational Ensemble Analysis and Kinetic Crystallography. Structure 24, 1-11 (2016).). Both trypsin and AmpC β-lactamase contain an activated serine nucleophile and oxyanion hole, however trypsin contains a serine-histidine-aspartic acid (Hedstrom, L. Serine protease mechanism and specificity. Chem. Rev. 102, 4501-4523 (2002).) while AmpC β-lactamase contains a serine-tyrosine-lysine catalytic triad (Dubus, A., et al. The roles of residues Tyr150, Glu272, and His314 in class C β-lactamases. Proteins Struct. Funct. Genet. 25, 473-485 (1996).).

[2] = target: bacterial AmpC β-lactamase (Escherichia coli, UniProt P00811); test: AmpC β-lactamase selectivity; assay type: biochemical
Experimental: as §1, §2

Aedes aegypti CBE = test: Inhibition of insect CBEs, 4-NPB substrate; assay type: biochemical; conditions: n=3
Experimental: (§3) Assays were performed with 4-NPB as the substrate.

Anopheles gambiae CBE = test: Inhibition of insect CBEs, 4-NPB substrate; assay type: biochemical; conditions: n=3
Experimental: as §3

[3] = target: Culex quinquefasciatus CBE (Culex quinquefasciatus, UniProt Q23734); test: Inhibition of insect CBEs, 4-NPB substrate; assay type: biochemical; conditions: n=3
Experimental: as §3

[4] = tested on: Lucilia cuprina larvae, laboratory susceptible strain (LS); test: Blowfly larvae pupation bioassay, laboratory strain, diazinon; assay type: in vivo
Experimental: Inhibitor efficacy was determined by treating larvae with diazinon over a range of concentrations, in the presence or absence of the compounds at constant concentrations, and comparing pupation rates.
Two strains of L. cuprina were used: 1) a laboratory reference drug-susceptible strain, LS, derived from collections in the Australian Capital Territory over 40 years ago, with no history of exposure to insecticides; and 2) a field-collected strain, Tara, resistant to diazinon and diflubenzuron (Levot, G. W. & Sales, N. New high level resistance to diflubenzuron detected in the Australian sheep blowfly, Lucilia cuprina (Wiedemann) (Diptera: Calliphoridae). Gen. Appl. Entomol. 31, 43-46 (2002)). The LcαE7 gene was sequenced in each of the strains. Briefly, genomic DNA was prepared from 20 adult female flies from each strain using the DNeasy Blood and Tissue kit (Qiagen). PCR was performed with primers specific to the LcαE7 gene, and the product was cloned into a pGEM-T EASY vector (Promega). Eight clones of the susceptible strain and 10 clones of the resistant strain were sequenced using M13 forward and reverse primers.
Each experiment utilized 50 larvae at each diazinon/malathion concentration. Experiments were replicated three times for diazinon, and twice for malathion. The insecticidal effects were defined by measuring the pupation rate. […]

[5] = tested on: panel of 26 human serine or threonine proteases; test: Protease selectivity panel as a whole (26 Ser/Thr proteases); assay type: biochemical; conditions: 100 μM; the 3 proteases inhibited by more than 50%
Experimental: Test compounds were dissolved in 100% DMSO to make 10 mM stock. Final compound concentration in assay is […]. Compounds were tested in duplicate wells at single concentration and the final concentration of DMSO in all assays was kept at 1%. Five reference compounds, AEBSF, Carfilzomib, Granzyme B Inhibitor II, Dec-RVKR-CMK, and Teneligliptin hydrobromide, were tested in an identical manner with 8 concentration points at 5× dilutions.

[6] = tested on: panel of CBEs from various pests; test: Panel of insect CBEs as a whole; assay type: biochemical
Experimental: as §3

## CCOP(=S)(OCC)Oc1nc(Cl)c(Cl)cc1Cl [CPE, Chlorpyrifos-ethyl]
[1]; CPE 2.5, 1 DAT, boronic acid where present 0.2 mg/ml
  Percentage of efficacy: 0%
[1]; CPE 2.5, 3 DAT, boronic acid where present 0.2 mg/ml
  Percentage of efficacy: 0%
[1]; CPE 2.5, 6 DAT, boronic acid where present 0.2 mg/ml
  Percentage of efficacy: 26%
[1]; CPE 2.5 g a.i./ha, 1 DAT, boronic acid where present 0.2 mg/ml
  Larvae number, mean: 12
[1]; CPE 2.5 g a.i./ha, 3 DAT, boronic acid where present 0.2 mg/ml
  Larvae number, mean: 12
[1]; CPE 2.5 g a.i./ha, 6 DAT, boronic acid where present 0.2 mg/ml
  Larvae number, mean: 8
[1]; CPE 6.24, 1 DAT, boronic acid where present 0.2 mg/ml
  Percentage of efficacy: 11%
[1]; CPE 6.24, 3 DAT, boronic acid where present 0.2 mg/ml
  Percentage of efficacy: 16%
[1]; CPE 6.24, 6 DAT, boronic acid where present 0.2 mg/ml
  Percentage of efficacy: 63%
[1]; CPE 6.24 g a.i./ha, 1 DAT, boronic acid where present 0.2 mg/ml
  Larvae number, mean: 10.7
[1]; CPE 6.24 g a.i./ha, 3 DAT, boronic acid where present 0.2 mg/ml
  Larvae number, mean: 9.7
[1]; CPE 6.24 g a.i./ha, 6 DAT, boronic acid where present 0.2 mg/ml
  Larvae number, mean: 4
[1]; CPE 15.6, 1 DAT, boronic acid where present 0.2 mg/ml
  Percentage of efficacy: 40%
[1]; CPE 15.6, 3 DAT, boronic acid where present 0.2 mg/ml
  Percentage of efficacy: 39%
[1]; CPE 15.6, 6 DAT, boronic acid where present 0.2 mg/ml
  Percentage of efficacy: 67%
[1]; CPE 15.6 g a.i./ha, 1 DAT, boronic acid where present 0.2 mg/ml
  Larvae number, mean: 7.3
[1]; CPE 15.6 g a.i./ha, 3 DAT, boronic acid where present 0.2 mg/ml
  Larvae number, mean: 7
[1]; CPE 15.6 g a.i./ha, 6 DAT, boronic acid where present 0.2 mg/ml
  Larvae number, mean: 3.5
[1]; CPE 39, 1 DAT, boronic acid where present 0.2 mg/ml
  Percentage of efficacy: 72%
[1]; CPE 39, 3 DAT, boronic acid where present 0.2 mg/ml
  Percentage of efficacy: 83%
[1]; CPE 39, 6 DAT, boronic acid where present 0.2 mg/ml
  Percentage of efficacy: 88%
[1]; CPE 39 g a.i./ha, 1 DAT, boronic acid where present 0.2 mg/ml
  Larvae number, mean: 3.3
[1]; CPE 39 g a.i./ha, 3 DAT, boronic acid where present 0.2 mg/ml
  Larvae number, mean: 2
[1]; CPE 39 g a.i./ha, 6 DAT, boronic acid where present 0.2 mg/ml
  Larvae number, mean: 1.3

## Cc1ccc(B(O)O)cc1Br [Compound 1]
Trypsin
  Ki: > 100000 nM
[2]
  Ki: 216 nM

## Cc1ccc(B(O)O)cc1OCc1ccccc1 [Compound 2]
Trypsin
  Ki: > 100000 nM
[2]
  Ki: 380 nM
Aedes aegypti CBE
  Ki: 3100 nM
Anopheles gambiae CBE
  Ki: 170 nM
[3]
  Ki: 2400 nM

## OB(O)c1cc(Br)cc(N2CCOCC2)c1 [Compound 3.1]
[4]
  reduction of diazinon EC50 compared to diazinon only control: 5.7 fold
[1]; boronic acid alone 0.2 mg/ml, 1 DAT, 12 larvae/box
  Larvae number, mean: 12
[1]; boronic acid alone 0.2 mg/ml, 3 DAT, 12 larvae/box
  Larvae number, mean: 12
[1]; boronic acid alone 0.2 mg/ml, 6 DAT, 12 larvae/box
  Larvae number, mean: 8.3

## CC(C)Oc1cc(Br)cc(B(O)O)c1 [Compound 3.7, 3-Bromo-5-isopropoxyphenylboronic acid]
Aedes aegypti CBE
  Ki: 2600 nM
Anopheles gambiae CBE
  Ki: 330 nM
[3]
  Ki: 900 nM

## OB(O)c1cc(Br)cc(N2CCCC2)c1 [Compound 3]
Trypsin
  Ki: > 100000 nM
[2]
  Ki: 60 nM
Aedes aegypti CBE
  Ki: 9900 nM
Anopheles gambiae CBE
  Ki: 790 nM
[3]
  Ki: 4700 nM
[5]
  residual activity of the inhibited proteases: at least 30%

## OB(O)c1ccc2ccccc2c1 [Compound 4]
Trypsin
  Ki: > 10000 nM
[2]
  Ki: 104 nM

## OB(O)c1ccc(OCc2ccccc2F)c(Cl)c1 [Compound 5, 3-Chloro-4(2′-fluorobenzyloxy) phenylboronic acid]
Trypsin
  Ki: > 100000 nM
[2]
  Ki: 220 nM
Aedes aegypti CBE
  Ki: 40000 nM
Anopheles gambiae CBE
  Ki: 30 nM
[3]
  Ki: 420 nM
[6]
  inhibition spectrum across CBEs: efficiently inhibiting six different CBEs
